Data reported in patent publication US11850247B2, “Antiviral compounds” (REGENTS OF THE UNIVERSITY OF MINNESOTA, priority 2020, dated 2023).
Each block holds one molecule with its values, some of them ahead of it.

Columns and labels:
[1] = molecular target: covalently-crosslinked hexameric CA A14C/E45C/W184A/M185A (CA121) (Human immunodeficiency virus type 1 group M subtype B, UniProt P12493, A146C/E177C/M317A/W316A); assay: Thermal shift assay (TSA), CA hexamer stability; type: binding, HIV-1; conditions: compound 20 μM, ΔTm=Tm−T0 vs DMSO
[2] = Cytotoxicity in TZM-GFP cells (XTT); type: cell-based; conditions: human, 72 hours exposure, XTT
Method in brief: (§1)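 TZM-GFP cells (1×10^4 per well) exposed continuously to increasing compound concentrations for 72 hours. Viable cells measured by XTT; CC50 from log(inhibitor) vs. normalized response-variable slope fit, averaged over at least two independent duplicate experiments.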

HIV-1 = assay: Anti-HIV-1 activity in TZM-GFP cells (viral LTR-activated GFP expression); type: cell-based; conditions: Human immunodeficiency virus 1, HIV-1 strain MOI=1, GFP positive cells counted after 48 hours
Method in brief: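 TZM-GFP cells treated with increasing compound for 24 h, then infected with HIV-1 (MOI=1); EC50 based on inhibition of LTR-driven GFP expression versus DMSO controls. CC50 determined by XTT after 72 h continuous exposure in the same cells; duplicate, ≥2 independent experiments, variable-slope curve fit.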

[3] = Microsomal stability assay, human liver microsomes; type: in vitro ADME
Procedure: (§2) The in vitro microsomal stability assay was conducted in duplicate in mouse and human liver microsomal systems, which were supplemented with nicotinamide adenine dinucleotide phosphate (NADPH) as a cofactor. […] The reaction was initiated by addition of 1 mM NADPH, followed by incubation at 37° C. A negative control was performed in parallel in the absence of NADPH to measure any chemical instability or non-NADPH dependent enzymatic degradation for each compound. At various time points (0, 5, 15, 30, and 60 minutes), 1 volume of reaction aliquot was taken and quenched with 3 volumes of acetonitrile containing an appropriate internal standard and 0.1% formic acid. The samples were then vortexed and centrifuged at 15,000 rpm for 5 minutes at 4° C. The supernatants were collected and analyzed by LC-MS/MS to determine the in vitro metabolic half-life (t1/2).

TZM-GFP cells = assay: Cytotoxicity in TZM-GFP cells (XTT); type: cell-based; conditions: 50 μM compound
Method in brief: as §1

[4] = Microsomal stability assay, mouse liver microsomes; type: in vitro ADME; conditions: NADPH
Procedure: as §2

[5] = pH 7.4, with Cobicistat 0.5 μM (CYP3A inhibitor), human liver microsomes, 1 μM compound, NADPH, with 0.5 μM Cobicistat (CYP3A inhibitor), read-out: HLM (+Cobi) half-life (t1/2)
[6] = 1 μM compound, without Cobicistat
[7] = human liver microsomes, 1 μM compound, NADPH, without Cobicistat
[8] = pH 7.4, 1 μM compound, without Cobicistat, read-out: MLM half-life (t1/2)
[9] = pH 7.4, human liver microsomes, 1 μM compound, NADPH, without Cobicistat, read-out: HLM half-life (t1/2)
[10] = pH 7.4, with Cobicistat 0.5 μM (CYP3A inhibitor), 1 μM compound, with 0.5 μM Cobicistat (CYP3A inhibitor), read-out: MLM (+Cobi) half-life (t1/2)
[11] = 1 μM compound, with 0.5 μM Cobicistat (CYP3A inhibitor)

Compound: O=C(Cn1c(=O)[nH]c2ccccc2c1=O)N[C@@H](Cc1ccccc1)C(=O)N1CCC[C@H]1C(=O)Nc1ccccc1 [Example 33, (S)-1-((2-(2,4-dioxo-1,4-dihydroquinazolin-3(2H)-yl)acetyl)-L-phenylalanyl)-N-phenylpyrrolidine-2-carboxamide]
TSA ΔTm (° C.) [1]: 2.5 °C | CC50 at 72 h [2]: > 100 µM | EC50 (HIV-1): 1.6 ± 0.1 µM | half-life in HLMs relative to PF74 ([3]; human liver microsomes, ratio of t1/2 to that of PF74): 44 fold | half-life at 1 μM [3, 5]: 578 min | half-life in combination with Cobicistat compared with PF74 ([3]; with CYP3A inhibitor Cobicistat, microsome species not given): significantly longer half-life than that of PF74

Compound: Cc1[nH]c2ccccc2c1CC(=O)N[C@@H](Cc1ccccc1)c1ncccc1-c1ccccc1 [Example 49, (S)-2-(2-methyl-1H-indol-3-yl)-N-(2-phenyl-1-(3-phenylpyridin-2-yl)ethyl)acetamide]
TSA ΔTm (° C.) [1]: 4.5 °C | % viability at 50 μM (TZM-GFP cells): 29 ± 12% | EC50 (HIV-1): 2.6 ± 0.4 µM

Compound: O=C(Cn1ncc2ccccc21)N[C@@H](Cc1ccccc1)c1ncccc1-c1ccccc1 [Example 50, (S)-2-(1H-indazol-1-yl)-N-(2-phenyl-1-(3-phenylpyridin-2-yl)ethyl)acetamide]
TSA ΔTm (° C.) [1]: 1.0 °C | % viability at 50 μM (TZM-GFP cells): 46 ± 13% | EC50 (HIV-1): 8.8 ± 0.4 µM

Compound: O=C(Cn1cccn1)N[C@@H](Cc1ccccc1)c1ncccc1-c1ccccc1 [Example 51, (S)—N-(2-phenyl-1-(3-phenylpyridin-2-yl)ethyl)-2-(1H-pyrazol-1-yl)acetamide]
TSA ΔTm (° C.) [1]: 1.1 °C | % viability at 50 μM (TZM-GFP cells): 102 ± 6% | EC50 (HIV-1): 5.1 ± 0.7 µM

Compound: Cc1[nH]c2ccccc2c1CC(=O)N[C@@H](Cc1ccccc1)c1nccn1-c1ccccc1 [Example 52, (S)-2-(2-methyl-1H-indol-3-yl)-N-(2-phenyl-1-(1-phenyl-1H-imidazol-2-yl)ethyl)acetamide]
TSA ΔTm (° C.) [1]: 3.9 °C | % viability at 50 μM (TZM-GFP cells): 78 ± 6% | EC50 (HIV-1): 3.7 ± 0.8 µM

Compound: Cc1[nH]c2ccccc2c1CC(=O)N[C@@H](Cc1ccccc1)c1nccn1-c1ccc(C#N)cc1 [Example 53, (S)—N-(1-(1-(4-cyanophenyl)-1H-imidazol-2-yl)-2-phenylethyl)-2-(2-methyl-1H-indol-3-yl)acetamide]
TSA ΔTm (° C.) [1]: 2.2 °C | % viability at 50 μM (TZM-GFP cells): 87 ± 8% | EC50 (HIV-1): 6.6 ± 0.4 µM

MLM half-life (t1/2) [4, 6]: 0.6 min | MLM half-life (t1/2) ([4]; 1 μM compound, without Cobicistat, listed as PF74): less than 1 min | HLM half-life (t1/2) [3, 7]: less than 1 min
Compound: Cc1[nH]c2ccccc2c1CC(=O)N[C@@H](Cc1ccccc1)C(=O)N(C)c1ccccc1 [PF-74, reference compound]

Compound: Cc1cccc2c1NC(=O)C2CC(=O)N[C@@H](Cc1ccccc1)C(=O)N(C)c1ccccc1 (stereo partly shown) [drawing 177]
half-life at 1 μM [4, 8]: 1 min | half-life at 1 μM [3, 9]: 7 min

Compound: Cc1cccc2c1NC(=O)C2CC(=O)N[C@@H](Cc1ccccc1)C(=O)N(C)c1cccc(F)c1 (stereo partly shown) [drawing 178]
half-life at 1 μM [4, 8]: 1.1 min | half-life at 1 μM [4, 10]: 20 min | half-life at 1 μM [3, 5]: 433 min | half-life at 1 μM [3, 9]: 2.5 min

Compound: Cc1ccc(C)c2c1NC(=O)C2CC(=O)N[C@@H](Cc1ccccc1)C(=O)N(C)c1ccccc1 (stereo partly shown) [drawing 179]
half-life at 1 μM [4, 8]: 0.6 min | half-life at 1 μM [3, 9]: 1.5 min

Compound: Cc1ccc(C)c2c1NC(=O)C2CC(=O)N[C@@H](Cc1ccccc1)C(=O)N(C)c1cccc(Cl)c1 (stereo partly shown) [drawing 180]
half-life at 1 μM [4, 8]: 1.4 min | half-life at 1 μM [4, 10]: 34 min | half-life at 1 μM [3, 5]: 107 min | half-life at 1 μM [3, 9]: 6.7 min

Compound: CN(C(=O)[C@H](Cc1ccccc1)NC(=O)Cc1ccc2ccccc2c1)c1ccccc1 [drawing 181]
half-life at 1 μM [4, 8]: 0.5 min | half-life at 1 μM [3, 9]: 1.8 min

Compound: CN(C(=O)[C@H](Cc1ccccc1)NC(=O)Cc1ccc2ccccc2c1)c1ccc(Cl)cc1 [drawing 182]
half-life at 1 μM [4, 8]: 1.4 min | half-life at 1 μM [4, 10]: 18 min | half-life at 1 μM [3, 5]: 239 min | half-life at 1 μM [3, 9]: 2.7 min

Compound: CN(C(=O)[C@H](Cc1ccccc1)NC(=O)Cc1cccc2ccccc12)c1ccccc1 [drawing 183]
half-life at 1 μM [4, 8]: 0.5 min | half-life at 1 μM [3, 9]: 0.6 min

Compound: CN(C(=O)[C@H](Cc1ccccc1)NC(=O)Cc1cccc2ccccc12)c1ccc(Cl)cc1 [drawing 184]
half-life at 1 μM [4, 8]: 0.6 min | half-life at 1 μM [4, 10]: 7.4 min | half-life at 1 μM [3, 5]: 102 min | half-life at 1 μM [3, 9]: 1.1 min

Compound: COc1ccc(N(C)C(=O)[C@H](Cc2ccccc2)NC(=O)CN2C(=O)NC3(CCCCC3)C2=O)cc1 [drawing 186]
half-life at 1 μM [4, 8]: 0.7 min | half-life at 1 μM [3, 9]: 5.2 min

Compound: Cc1ccc(N(C)C(=O)[C@H](Cc2ccccc2)NC(=O)CN2C(=O)NC3(CCCCC3)C2=O)cc1 [drawing 187]
half-life at 1 μM [4, 8]: 1.2 min | half-life at 1 μM [3, 9]: 3.3 min

Compound: CN(C(=O)[C@H](Cc1ccccc1)NC(=O)CN1C(=O)NC2(CCCCC2)C1=O)c1ccc(F)cc1 [drawing 188]
half-life at 1 μM [4, 8]: 0.5 min | half-life at 1 μM [3, 9]: 1.1 min

Compound: CN(C(=O)[C@H](Cc1ccccc1)NC(=O)CN1C(=O)NC2(CCCCC2)C1=O)c1ccc(Cl)cc1 [drawing 189]
half-life at 1 μM [4, 8]: 0.9 min | half-life at 1 μM [3, 9]: 3.1 min

Compound: CN(C(=O)[C@H](Cc1ccccc1)NC(=O)CNC(=O)c1ccccc1)c1ccccc1 [drawing 190]
MLM half-life (t1/2) [4, 6]: 3.6 min | HLM half-life (t1/2) [3, 7]: 15 min

Compound: Cc1ccc(N(C)C(=O)[C@H](Cc2ccccc2)NC(=O)CNC(=O)c2ccccc2)cc1 [drawing 191]
MLM (+Cobi) half-life (t1/2) [4, 11]: 34 min | MLM half-life (t1/2) [4, 6]: 5.0 min | HLM (+Cobi) half-life (t1/2) ([3]; human liver microsomes, 1 μM compound, NADPH, with 0.5 μM Cobicistat (CYP3A inhibitor)): 42 min | HLM half-life (t1/2) [3, 7]: 22 min

Compound: CN(C(=O)[C@H](Cc1ccccc1)NC(=O)CNC(=O)c1ccccc1)c1ccc(Cl)cc1 [drawing 192]
MLM (+Cobi) half-life (t1/2) [4, 11]: 52 min | MLM half-life (t1/2) [4, 6]: 13 min | HLM half-life (t1/2) [3, 7]: 36 min | half-life at 1 μM [3, 5]: 141 min

Compound: CN(C(=O)[C@H](Cc1ccccc1)NC(=O)CNC(=O)c1ccccc1)c1cccc(F)c1 [drawing 193]
MLM half-life (t1/2) [4, 6]: 3.6 min | HLM half-life (t1/2) [3, 7]: 12 min

Compound: CCN(C(=O)[C@H](Cc1ccccc1)NC(=O)CNC(=O)c1ccccc1)c1ccccc1 [drawing 194]
MLM (+Cobi) half-life (t1/2) [4, 11]: 28 min | MLM half-life (t1/2) [4, 6]: 2.4 min | HLM half-life (t1/2) [3, 7]: 14 min | half-life at 1 μM [3, 5]: 231 min

Compound: Cc1cn(CC(=O)N[C@@H](Cc2ccccc2)C(=O)N(C)c2ccc(Cl)cc2)c(=O)[nH]c1=O [drawing 195]
MLM half-life (t1/2) [4, 6]: 4.6 min | half-life at 1 μM [4, 10]: 385 min | HLM half-life (t1/2) [3, 7]: 12 min | half-life at 1 μM [3, 5]: 1390 min
